Data from ChEMBL document CHEMBL2040788, “Expanded Utility of the β-Glucuronide Linker: ADCs That Deliver Phenolic Cytotoxic Agents” (ACS Med Chem Lett, 2010).

Experiments:
[1] = Cytotoxicity against CD70 deficient human L540cy cells expressing CD30 after 96 hrs; format: functional, cell-based
[2] = Chemical stability of the compound; format: physicochemical
CAKI-1 = assay: Cytotoxicity against CD30 deficient human Caki1 cells expressing CD70 after 96 hrs; format: functional, cell-based; conditions: CAKI-1, 96 h

C=C(C)CC(OC)[C@H](O)C(=O)N[C@@H](OC)[C@@H]1C[C@@H](O)C(C)(C)[C@@H](C[C@H](O)[C@@H](C)[C@H]2Cc3c(C)c(O)cc(O)c3C(=O)O2)O1 (stereo partly drawn) [IRCINIASTATIN A]
IC50 [1]: 0.7 nM
Stability [2]: Stable
IC50 (CAKI-1): 0.3 nM
